One assay deals with T1, AR (Homo sapiens, UniProt P10275, Q868H).
T1 construct: endogenous in cells; host or cells: parental MDA-MB453
T1 sequence (P10275 1-920 Q868H): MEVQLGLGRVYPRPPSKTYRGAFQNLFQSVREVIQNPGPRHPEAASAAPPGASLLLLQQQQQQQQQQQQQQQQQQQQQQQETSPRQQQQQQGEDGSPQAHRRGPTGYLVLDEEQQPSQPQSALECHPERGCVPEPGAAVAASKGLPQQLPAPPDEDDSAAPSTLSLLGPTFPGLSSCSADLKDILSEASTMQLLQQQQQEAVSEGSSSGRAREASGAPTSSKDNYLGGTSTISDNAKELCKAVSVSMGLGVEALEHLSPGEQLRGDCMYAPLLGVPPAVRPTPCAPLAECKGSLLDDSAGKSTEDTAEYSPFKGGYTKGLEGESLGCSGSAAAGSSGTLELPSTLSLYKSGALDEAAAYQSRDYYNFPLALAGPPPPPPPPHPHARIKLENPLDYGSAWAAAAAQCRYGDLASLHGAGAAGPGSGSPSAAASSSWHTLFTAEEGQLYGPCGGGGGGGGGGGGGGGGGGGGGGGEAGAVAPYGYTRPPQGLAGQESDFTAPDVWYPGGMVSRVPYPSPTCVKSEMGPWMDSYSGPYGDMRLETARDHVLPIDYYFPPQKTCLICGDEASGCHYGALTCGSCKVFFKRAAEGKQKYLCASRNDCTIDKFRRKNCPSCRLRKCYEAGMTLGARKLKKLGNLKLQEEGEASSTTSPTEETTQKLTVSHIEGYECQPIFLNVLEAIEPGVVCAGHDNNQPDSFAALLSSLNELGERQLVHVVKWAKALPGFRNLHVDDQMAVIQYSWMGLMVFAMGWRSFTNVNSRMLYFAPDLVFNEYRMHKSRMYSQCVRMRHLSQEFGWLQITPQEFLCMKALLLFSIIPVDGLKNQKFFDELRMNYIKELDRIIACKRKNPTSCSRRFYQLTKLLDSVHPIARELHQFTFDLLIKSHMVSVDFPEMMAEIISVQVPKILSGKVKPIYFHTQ
Nature of the assay: testosterone-stimulated parental MDA-MB453 (direct effects on AR). The class given is cell-based.

Another assay has as its target T2, 17β-HSD3 (Homo sapiens, UniProt P37058).
T2 sequence (P37058 1-310): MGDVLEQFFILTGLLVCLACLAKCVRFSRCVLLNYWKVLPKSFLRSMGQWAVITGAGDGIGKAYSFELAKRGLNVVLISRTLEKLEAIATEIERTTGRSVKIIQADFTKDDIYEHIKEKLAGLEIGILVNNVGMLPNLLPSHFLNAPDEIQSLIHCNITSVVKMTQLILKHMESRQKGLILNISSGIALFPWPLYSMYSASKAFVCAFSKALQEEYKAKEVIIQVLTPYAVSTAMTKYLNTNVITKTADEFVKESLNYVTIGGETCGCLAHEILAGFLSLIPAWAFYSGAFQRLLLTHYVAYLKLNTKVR
Nature of the assay: TLC assay of androstenedione to testosterone conversion in Shinogi-17β-HSD3 cells. The class given is cell-based. The conditions noted are these: Shinogi-17β-HSD3 cells incubated with {3H}-androstenedione; read-out: IC50 estimated by TLC assay. How it is done:
Cells were plated in 24-well tissue culture plates at 5×10^4 cells per well in their appropriate media. After allowing the cells to adhere for 24 hours, the media was changed to contain 10% cFBS (charcoal treated FBS) (300 μL) per well and 0.5μ Ci of the radiolabeled hormones were added to each well. After 3 hours, the supernatant was removed and 500 μL of extraction buffer (3 parts Ethyl Acetate: 1 part Acetone) was added to each sample and vortexed extensively. The organic layer was carefully removed and dried down in siliconized 1.5 mL microfuge tubes (National Scientific Supply Co.). […] The BAS screens were then read using a Fujifilm PhosphoImager FLA-2000 and spots were quantitated using the Fujifilm MacBas imaging/densitometry program.
The characterization of breast and prostate tumor cell lines for the 17β-HSD activities enabled the identification of cells which could be engineered for preferred 17β-HSD3 activity to monitor the cellular effects of inhibitors. […] In addition, 17β-HSD mRNA was not detected at appreciable levels in these cells by RT-PCR (data not shown). […]
To confirm that this class of compounds was inhibiting 17β-HSD3, Shinogi-17β-HSD3 cells incubated with {3H}-androstenedione were analyzed by TLC assay following 2-[(3-chloro-4-hydroxybenzoyl)amino]-N-[2-(2-methoxyphenyl)ethyl]-5-phenoxybenzamide treatment.

Assay [1] relates to testosterone biosynthesis. Nature of the assay: testosterone levels in intact rats. The class given is in vivo. The settings on record: p.o., over 14 days, FIG. 6. How it is done: Intact rats were administered p.o. the indicated doses of 18β-glycyrrhetinic acid over 14 days and testosterone levels were determined.

As to `C[C@]12C=CC(=O)C=C1C(=O)C[C@@H]1[C@@H]2CC[C@]2(C)C(=O)CC[C@@H]12` [1,4-androstadiene-1,6,17-trione], at AR, the “effects on testosterone-stimulated parental MDA-MB453” value is listed as “No effects were observed”. Usually IC50 stands for the point on the concentration scale where inhibition reaches its midpoint. With `COc1ccccc1CCNC(=O)c1cc(Oc2ccccc2)ccc1NC(=O)c1ccc(O)c(Cl)c1` [2-[(3-chloro-4-hydroxybenzoyl)amino]-N-[2-(2-methoxyphenyl)ethyl]-5-phenoxybenzamide], the IC50 on 17β-HSD3 is around 300 nM.

In the case of `CC1(C)[C@@H](O)CC[C@]2(C)[C@H]3C(=O)C=C4[C@@H]5C[C@@](C)(C(=O)O)CC[C@]5(C)CC[C@@]4(C)[C@]3(C)CC[C@@H]12` [18β-glycyrrhetinic acid], the “effects on testosterone-stimulated parental MDA-MB453” value at AR is given as “No effects were observed”. In assay [1], the “testosterone biosynthesis (testosterone levels)” value was “inhibition of testosterone biosynthesis”.

Source of the values: US7138246B2, “Methods for identifying or screening for agents that modulate 17β-HSD3” (Bristol-Myers Squibb Company, priority 2004, dated 2006).
